For this series, the system named is CCRIS mutagenicity, Ames/micronucleus/aberration tests. The experiment in a line: CCRIS mutagenicity studies.
Where [1] appears, read: Test System: AMES SALMONELLA TYPHIMURIUM, Strain/Indicator: TA97, Metabolic Activation: NONE, Method: STANDARD PLATE.
The mark [2] stands for this setting: Test System: AMES SALMONELLA TYPHIMURIUM, Strain/Indicator: TA98, Metabolic Activation: NONE, Method: STANDARD PLATE.
[3] abbreviates: Test System: AMES SALMONELLA TYPHIMURIUM, Strain/Indicator: TA102, Metabolic Activation: NONE, Method: STANDARD PLATE.

Calls of active or inactive are those of the source. The rule behind the calls is not given here.

`Nc1ccc(Cl)cc1N`: the mutagenic call runs as follows: (End Point: IN VITRO CHROMOSOMAL ABERRATIONS, Test System: CHL CELLS, Metabolic Activation: NONE) “active; positive (structural changes)”; (End Point: IN VITRO CHROMOSOMAL ABERRATIONS, Test System: CHL CELLS, Metabolic Activation: RAT, LIVER, S-9, SODIUM PHENOBARBITAL AND 5,6-BENZOFLAVONE) “active; positive (structural changes)”; (End Point: IN VITRO CHROMOSOMAL ABERRATIONS, Test System: CHO-LB CELLS, Metabolic Activation: NONE) “active; positive”; (End Point: IN VITRO CHROMOSOMAL ABERRATIONS, Test System: CHO-LB CELLS, Metabolic Activation: RAT, LIVER, S-9, AROCLOR 1254) “inactive; negative”; (End Point: IN VIVO MICRONUCLEUS, Test System: HEPATOCYTES, Species: RAT, Strain/Sex: FISHER 344 OR SD/MALE, Route: ORAL OR IP) “inactive; negative”; (End Point: IN VIVO MICRONUCLEUS, Test System: PERIPHERAL BLOOD RETICULOCYTES, Species: RAT, Strain/Sex: FISHER 344 OR SD/MALE, Route: ORAL OR IP) “inactive; negative”. Also, the mutagenic call was “active; positive” (Test System: AMES SALMONELLA TYPHIMURIUM, Strain/Indicator: TA97, Metabolic Activation: HAMSTER, LIVER, S-9, AROCLOR 1254 (10%), Method: PREINCUBATION); “inactive; negative” (Test System: AMES SALMONELLA TYPHIMURIUM, Strain/Indicator: TA97, Metabolic Activation: NONE, Method: PREINCUBATION); “active; positive” (Test System: AMES SALMONELLA TYPHIMURIUM, Strain/Indicator: TA97, Metabolic Activation: RAT, LIVER, S-9, AROCLOR 1254 (10%), Method: PREINCUBATION); “active; positive” (Test System: AMES SALMONELLA TYPHIMURIUM, Strain/Indicator: TA98, Metabolic Activation: HAMSTER, LIVER, S-9, AROCLOR 1254 (10%), Method: PREINCUBATION); “inactive; negative” (Test System: AMES SALMONELLA TYPHIMURIUM, Strain/Indicator: TA98, Metabolic Activation: NONE, Method: PREINCUBATION); “active; positive” (Test System: AMES SALMONELLA TYPHIMURIUM, Strain/Indicator: TA98, Metabolic Activation: RAT, LIVER, S-9, AROCLOR 1254 (10%), Method: PREINCUBATION). In addition, the mutagenic call by setting is: (Test System: AMES SALMONELLA TYPHIMURIUM, Strain/Indicator: TA98, Metabolic Activation: RAT, LIVER, S-9, PCB, Method: PREINCUBATION) “active; positive”; (Test System: AMES SALMONELLA TYPHIMURIUM, Strain/Indicator: TA100, Metabolic Activation: HAMSTER, LIVER, S-9, AROCLOR 1254 (10%), Method: PREINCUBATION) “active; positive”; (Test System: AMES SALMONELLA TYPHIMURIUM, Strain/Indicator: TA100, Metabolic Activation: NONE, Method: PREINCUBATION) “inactive; negative”; (Test System: AMES SALMONELLA TYPHIMURIUM, Strain/Indicator: TA100, Metabolic Activation: RAT, LIVER, S-9, AROCLOR 1254 (10%), Method: PREINCUBATION) “active; positive”; (Test System: AMES SALMONELLA TYPHIMURIUM, Strain/Indicator: TA100, Metabolic Activation: RAT, LIVER, S-9, PCB, Method: PREINCUBATION) “active; positive”; (Test System: AMES SALMONELLA TYPHIMURIUM, Strain/Indicator: TA1535, Metabolic Activation: HAMSTER, LIVER, S-9, AROCLOR 1254 (10%), Method: PREINCUBATION) “inactive; negative”. In addition, the mutagenic call is “inactive; negative” (Test System: AMES SALMONELLA TYPHIMURIUM, Strain/Indicator: TA1535, Metabolic Activation: NONE, Method: PREINCUBATION); “inactive; negative” (Test System: AMES SALMONELLA TYPHIMURIUM, Strain/Indicator: TA1535, Metabolic Activation: RAT, LIVER, S-9, AROCLOR 1254 (10%), Method: PREINCUBATION); “inactive; negative” (Test System: E. COLI, Strain/Indicator: WP2 UVRA, Metabolic Activation: HAMSTER, LIVER, S-9, AROCLOR 1254, Method: STANDARD PLATE); “inactive; negative” (Test System: E. COLI, Strain/Indicator: WP2 UVRA, Metabolic Activation: MOUSE, LIVER, S-9, AROCLOR 1254, Method: STANDARD PLATE); “inactive; negative” (Test System: E. COLI, Strain/Indicator: WP2 UVRA, Metabolic Activation: MOUSE, LIVER, S-9, Method: STANDARD PLATE); “inactive; negative” (Test System: E. COLI, Strain/Indicator: WP2 UVRA, Metabolic Activation: NONE, Method: STANDARD PLATE). Also, the mutagenic call was “inactive; negative” (Test System: E. COLI, Strain/Indicator: WP2 UVRA, Metabolic Activation: RAT, LIVER, S-9, Method: STANDARD PLATE) and “active; positive” (Test System: UDS RODENT HEPATOCYTES, Strain/Indicator: THY INCORP (NON-S-PHASE), Metabolic Activation: NONE, Method: AUTORADIOGRAPHY).
`CCOC(=O)/C=C\C(=O)OCC`: the mutagenic call (Test System: MOUSE LYMPHOMA, Strain/Indicator: L5178Y (TK+/TK-), Metabolic Activation: NONE, Method: SUSPENSION/PLATE) was “active; positive”.
Turning to `O=C1OC(O)C(CCl)=C1Cl` (configuration not stated), the mutagenic call under setting [1] is “active; positive”; the mutagenic call under setting [2] is “active; positive”; the mutagenic call under setting [3] is “active; positive”; the mutagenic call (Test System: AMES SALMONELLA TYPHIMURIUM, Strain/Indicator: TA1535, Metabolic Activation: NONE, Method: STANDARD PLATE) was “active; positive”; the mutagenic call (Test System: CHINESE HAMSTER OVARY, Strain/Indicator: CHO-KTL3 (HPRT)/6-THIOGUANINE, Metabolic Activation: NONE) is “active; positive”; the mutagenic call (Test System: UDS RAT HEPATOCYTES, Strain/Indicator: THYMIDINE INCORPORATION, Metabolic Activation: NONE, Method: AUTORADIOGRAPHY) was “active; positive”.
For the compound `Cc1c2c(c(C)c3ccccc13)-c1cccc3cccc-2c13`, the mutagenic call (Test System: AMES SALMONELLA TYPHIMURIUM, Strain/Indicator: TA100, Metabolic Activation: RAT, LIVER, S-9, AROCLOR 1254) is “active; positive”.
With `N/C(=N\O)c1ccc(O)c(O)c1`, the mutagenic call runs as follows: under setting [1], “inactive; negative”; (Test System: AMES SALMONELLA TYPHIMURIUM, Strain/Indicator: TA97, Metabolic Activation: RAT, LIVER, S-9, DELOR 103, Method: STANDARD PLATE) “inactive; negative”; under setting [2], “inactive; negative”; (Test System: AMES SALMONELLA TYPHIMURIUM, Strain/Indicator: TA98, Metabolic Activation: RAT, LIVER, S-9, DELOR 103, Method: STANDARD PLATE) “active; positive”; (Test System: AMES SALMONELLA TYPHIMURIUM, Strain/Indicator: TA100, Metabolic Activation: NONE, Method: STANDARD PLATE) “inactive; negative”; (Test System: AMES SALMONELLA TYPHIMURIUM, Strain/Indicator: TA100, Metabolic Activation: RAT, LIVER, S-9, DELOR 103, Method: STANDARD PLATE) “inactive; negative”. Further, the mutagenic call was “inactive; negative” under setting [3] and “inactive; negative” (Test System: AMES SALMONELLA TYPHIMURIUM, Strain/Indicator: TA102, Metabolic Activation: RAT, LIVER, S-9, DELOR 103, Method: STANDARD PLATE).
